This is an account of results in patent US20180193361A1, “GUT ANTI-INFLAMMATORY AGENTS FOR REGULATION OF HIGH BLOOD GLUCOSE LEVELS” (UNIVERSITY HEALTH NETWORK, priority 2015, published 2018).

For assay [1], the system named is gut epithelial barrier. To be noted: models of IBD (Di Paolo et al., 1996; Liu et al., 2009); cited from earlier work.
In assay [2] the test system is colon and small bowel lamina propria T cells. Kind of assay: Flow cytometry of colon and small bowel lamina propria T cells, HFD or HFD 5-ASA. It is filed as in vivo, mice. Particulars: HFD vs HFD 5-ASA 1500 mg/kg/day, 16 weeks. From the text: Isolation of bowel immune cells. For isolation of small intestine lamina propria immune cells, we used the protocol described by Fritz et al (Fritz et al., 2012), and processed approximately 10 cm from the distal end of the small intestine (jejunum and ileum). For the isolation of colonic lamina propria immune cells, we used the protocol described by Geddes et al (Geddes et al., 2011). Following lamina propria isolations, we passed immune cells through 70 μm strainers, and used them for flow cytometry.
We stained single cell suspensions for 30 min on ice with commercial antibodies. Flow cytometry antibodies including CD45.2 (104), CD3 (145-2C11), CD4 (GK1.5), CD8 (53-6.7), CD25 (PC61), γδTcR (GL3), Foxp3 (150D), IL-17 (TC11-18H10.1), IFNγ XMG1.2), α4β7 (DATK32), CCR9 (CW-1.2), CD11b (M1/70), F4/80 (BM8), CD11c (N418), CD206 (C068C2), Gr-1 (RB6-8C5), IL-7Rα (A7R34), B220 (RA3-6B2), Thy1.2 (30-H12), NKp46 (29A1.4), and Sca-1 (D7) were purchased from Biolegend. Intracellular staining was performed using a Foxp3 staining buffer kit (eBioscience). We acquired data on a Fortessa flow cytometer (BD Biosciences) and analyzed it with FlowJo software (Tree Star). We gated ILCs as described (Kirchberger et al., 2013).
(Flow cytometry measures light scatter and fluorescence of single cells or particles in a stream.)

The subject of assay [3] is Lck-Cre PPARγfl/fl T cells. Kind of assay: In vitro IFNγ secretion, T cells lacking PPARγ (Lck-Cre PPARγfl/fl). It is filed as cell-based, mice. Particulars: HFD-fed Lck-Cre+ PPARγfl/fl vs WT, 5-ASA in vitro 0.01-1 mM. On the procedure:
Mice. Mice were fed either NCD (15 kcal % fat) or HFD (Research Diets, 60 kcal % fat, irradiated) starting at 6 weeks of age. All studies were performed under the approval of Animal User Protocols by the Animal Care Committee at the University Health Network. Mice were maintained in a pathogen-free, temperature-controlled environment on a 12-hour light and dark cycle. All mice used in comparative studies were male, age-matched, and litter mates where possible. […] We confirmed T cell-specific floxing of the PPARγ gene in Lck-Cre+ PPARγfl/fl mice by qPCR with a minimum of at least 90% reduction in PPARγ expression. […] To measure the effect of IFNγ on tight-junction gene expression, we treated MODE-K cells with recombinant mouse IFNγ (Biolegend). We purified bulk dendritic cells and T cells from murine small bowels and spleens using a negative selection DC or T cell isolation kit (Stem Cell Technologies). We plated T cells at 5×10^5 cells/well with plate-bound anti-CD3/CD28 (1 μg/ml, Biolegend). […] We collected supernatants for cytokine measurements after 72 hour incubation. […] We measured serum cytokines by Luminex Multiplex cytokine assay (Millipore, run by the UHN Microarray Center), and quantified IL-10 and IFN-γ in supernatants of anti-CD3/CD28-stimulated splenocytes or bowel immune cells (Winer et al., 2009b) by ELISA (Biolegend).

Take `Nc1ccc(O)c(C(=O)O)c1` [5-ASA, 5-aminosalicylic acid]: the “intactness of the gut epithelial barrier” value in assay [1] is listed as “beneficial effects”. Further, in assay [2] (colon and small bowel), the “IFNγ-secreting CD8+ T cells” value is reported as “reduction”, the “IL-17-secreting γδ T cells” value was “reduction” and the Th1 cells result is “reduction”. The Tregs entry in assay [2] (small bowel) is “significant increase”. Also, the “suppressive effects on IFNγ with loss of PPARγ in T cells” value in assay [3] is given as “abrogated”.
